{"source": "patent US20220073638A1", "about": "“METHODS AND PHARMACEUTICAL COMPOSITION FOR THE TREATMENT OF CANCERS RESISTANT TO IMMUNE CHECKPOINT THERAPY” (INSERM (INSTITUT NATIONAL DE LA SANTÉ ET DE LA RECHERCHE …, priority 2018, published 2022)", "system": "CD163+ TAMs", "assay_type": "in vivo, mouse", "description": "To deplete CD163^+ TAM we generated knock-in mice expressing iCre recombinase from a Cd163-IRES-iCre transcript (CD163-iCre) and crossed them to Csflr-LSL-DTR mice that after cre-mediated deletion of LSL, have DTR expression under the control of the Csflr promotor. A single injection of 4 ng/kg diphteria toxin (DT) specifically depleted close to 50% of CD163+ TAMs after 24 hrs (data not shown). No effect, was observed on the remaining myeloid compartment except for a small increase in recruited monocytes (data not shown). Next, we attempted to achieve sustained depletion of CD163+ TAMs by repeated DT injections."}
{"substance": "diphteria toxin [DT]", "values": [{"measurement": "side effects of sustained depletion of CD163+ macrophages", "setting": "repeated DT injections", "result": "severe side-effect"}, {"measurement": "tumor growth", "setting": "repeated DT injections, CD163-iCre+/-, Csf1r-LSL-DTR+/- mice compared to Csf1r-LSL-DTR wildtype mice", "result": "significantly reduced tumor growth"}, {"measurement": "depletion of CD163+ TAMs", "setting": "single injection of 4 ng/kg DT, after 24 hrs", "result": "~50", "unit": "%"}, {"measurement": "effect on the remaining myeloid compartment", "setting": "single injection of 4 ng/kg DT, except for a small increase in recruited monocytes", "result": "No effect"}]}
